Measurements from paper PMC9963398, “Discovery of New Quinolone-Based Diarylamides as Potent B-RAF^V600E/C-RAF Kinase Inhibitors Endowed with Promising In Vitro Anticancer Activity” (International Journal of Molecular Sciences, 2023).

How the values were obtained:
[1] = test system: MDA-MB-231/ATCC; test: cells; conditions: Homo sapiens
Method: (§1) The anticancer screening of target compounds over a full panel of 60 human cancer cell lines was carried out using Sulforhodamine B (SRB) assay at the National Cancer Institute (NCI), Bethesda, Maryland, USA, employing the standard protocol.

[2] = test system: PC-3; test: cells; conditions: Homo sapiens
Method: as §1

[3] = test system: MDA-MB-468; test: cells; conditions: Homo sapiens
Method: as §1

[4] = test system: IGROV1; test: NCI-60 five-dose SRB assay; type: cell-based; conditions: Homo sapiens, IGROV-1; IGROV1, Ovarian cancer, five-dose test
Method: as §1

[5] = test system: OVCAR-5; test: NCI-60 five-dose SRB assay; type: cell-based; conditions: Homo sapiens; OVCAR-5, Ovarian cancer, five-dose test
Method: as §1

[6] = test system: T-47D; test: NCI-60 five-dose SRB assay; type: cell-based; conditions: Homo sapiens, T47D, Breast cancer, five-dose test
Method: as §1

[7] = test system: OVCAR-4; test: NCI-60 five-dose SRB assay; type: cell-based; conditions: Homo sapiens; OVCAR-4, Ovarian cancer, five-dose test
Method: as §1

[8] = test system: HOP-92; test: NCI-60 five-dose SRB assay; type: cell-based; conditions: Homo sapiens; HOP-92, NSCL cancer, five-dose test
Method: as §1

[9] = test system: DU-145; test: NCI-60 five-dose SRB assay; type: cell-based; conditions: Homo sapiens; DU-145, Prostate cancer, five-dose test
Method: as §1

[10] = test system: SK-OV-3; test: NCI-60 five-dose SRB assay; type: cell-based; conditions: Homo sapiens; SK-OV-3, Ovarian cancer, five-dose test
Method: as §1

[11] = test system: UO-31; test: NCI-60 five-dose SRB assay; type: cell-based; conditions: Homo sapiens; UO-31, Renal cancer, five-dose test
Method: as §1

[12] = test system: SNB-75; test: NCI-60 five-dose SRB assay; type: cell-based; conditions: Homo sapiens; SNB-75, CNS cancer, five-dose test
Method: as §1

[13] = test system: A549/ATCC; test: NCI-60 five-dose SRB assay; type: cell-based; conditions: Homo sapiens, NSCL cancer, five-dose test
Method: as §1

[14] = test system: M14; test: NCI-60 five-dose SRB assay; type: cell-based; conditions: Homo sapiens; M14, Melanoma, five-dose test
Method: as §1

[15] = test system: NCI-H23; test: NCI-60 five-dose SRB assay; type: cell-based; conditions: Homo sapiens; NCI-H23, NSCL cancer, five-dose test
Method: as §1

[16] = test system: SW-620; test: NCI-60 five-dose SRB assay; type: cell-based; conditions: Homo sapiens; SW-620, Colon cancer, five-dose test
Method: as §1

[17] = test system: COLO 205; test: NCI-60 five-dose SRB assay; type: cell-based; conditions: Homo sapiens; COLO 205, Colon cancer, five-dose test
Method: as §1

[18] = test system: SF-268; test: NCI-60 five-dose SRB assay; type: cell-based; conditions: Homo sapiens; SF-268, CNS cancer, five-dose test
Method: as §1

[19] = test system: SF-295; test: NCI-60 five-dose SRB assay; type: cell-based; conditions: Homo sapiens; SF-295, CNS cancer, five-dose test
Method: as §1

[20] = test system: HOP-62; test: NCI-60 five-dose SRB assay; type: cell-based; conditions: Homo sapiens; HOP-62, NSCL cancer, five-dose test
Method: as §1

[21] = test system: CAKI-1; test: NCI-60 five-dose SRB assay; type: cell-based; conditions: Homo sapiens; CAKI-1, Renal cancer, five-dose test
Method: as §1

[22] = test system: KM12; test: NCI-60 five-dose SRB assay; type: cell-based; conditions: Homo sapiens; KM12, Colon cancer, five-dose test
Method: as §1

[23] = test system: EKVX; test: NCI-60 five-dose SRB assay; type: cell-based; conditions: Homo sapiens, NSCL cancer, five-dose test
Method: as §1

[24] = test system: UACC-62; test: NCI-60 five-dose SRB assay; type: cell-based; conditions: Homo sapiens; UACC-62, Melanoma, five-dose test
Method: as §1

[25] = test system: UACC-257; test: NCI-60 five-dose SRB assay; type: cell-based; conditions: Homo sapiens; UACC-257, Melanoma, five-dose test
Method: as §1

[26] = test system: OVCAR-8; test: NCI-60 five-dose SRB assay; type: cell-based; conditions: Homo sapiens; OVCAR-8, Ovarian cancer, five-dose test
Method: as §1

[27] = test system: HT29; test: NCI-60 five-dose SRB assay; type: cell-based; conditions: Homo sapiens, HT-29; HT29, Colon cancer, five-dose test
Method: as §1

[28] = test system: BT-549; test: NCI-60 five-dose SRB assay; type: cell-based; conditions: Homo sapiens; BT-549, Breast cancer, five-dose test
Method: as §1

[29] = test system: HL-60(TB); test: NCI-60 five-dose SRB assay; type: cell-based; conditions: Homo sapiens, Leukemia, five-dose test
Method: as §1

[30] = test system: RXF 393; test: NCI-60 five-dose SRB assay; type: cell-based; conditions: Homo sapiens; RXF 393, Renal cancer, five-dose test
Method: as §1

[31] = test system: U251; test: NCI-60 five-dose SRB assay; type: cell-based; conditions: Homo sapiens, U-251; U251, CNS cancer, five-dose test
Method: as §1

[32] = test system: MOLT-4; test: NCI-60 five-dose SRB assay; type: cell-based; conditions: Homo sapiens; MOLT-4, Leukemia, five-dose test
Method: as §1

[33] = test system: MALME-3M; test: NCI-60 five-dose SRB assay; type: cell-based; conditions: Homo sapiens, Melanoma, five-dose test
Method: as §1

[34] = test system: OVCAR-3; test: NCI-60 five-dose SRB assay; type: cell-based; conditions: Homo sapiens; OVCAR-3, Ovarian cancer, five-dose test
Method: as §1

[35] = test system: LOX IMVI; test: NCI-60 five-dose SRB assay; type: cell-based; conditions: Homo sapiens, Melanoma, five-dose test
Method: as §1

[36] = test system: MDA-MB-435; test: NCI-60 five-dose SRB assay; type: cell-based; conditions: Homo sapiens; MDA-MB-435, Melanoma, five-dose test
Method: as §1

[37] = test system: SNB-19; test: NCI-60 five-dose SRB assay; type: cell-based; conditions: Homo sapiens; SNB-19, CNS cancer, five-dose test
Method: as §1

[38] = test system: HCC-2998; test: NCI-60 five-dose SRB assay; type: cell-based; conditions: Homo sapiens; HCC-2998, Colon cancer, five-dose test
Method: as §1

[39] = test system: HS 578T; test: NCI-60 five-dose SRB assay; type: cell-based; conditions: Homo sapiens, Breast cancer, five-dose test
Method: as §1

[40] = test system: ACHN; test: NCI-60 five-dose SRB assay; type: cell-based; conditions: Homo sapiens, Renal cancer, five-dose test
Method: as §1

[41] = test system: SN12C; test: NCI-60 five-dose SRB assay; type: cell-based; conditions: Homo sapiens, Renal cancer, five-dose test
Method: as §1

[42] = test system: TK-10; test: NCI-60 five-dose SRB assay; type: cell-based; conditions: Homo sapiens; TK-10, Renal cancer, five-dose test
Method: as §1

[43] = test system: RPMI-8226; test: NCI-60 five-dose SRB assay; type: cell-based; conditions: Homo sapiens; RPMI-8226, Leukemia, five-dose test
Method: as §1

`COc1ccc2nc(Nc3cccc(NC(=O)c4ccc(CN5CCN(C)CC5)c(C(F)(F)F)c4)c3)ccc2c1` [Compound 16a, N-(3-((6-methoxyquinolin-2-yl)amino)phenyl)-4-((4-methylpiperazin-1-yl)methyl)-3-(trifluoromethyl)benzamide] was tested, and the GI50 [1] was 1.84 µM, the GI50 [2] was 2.9 µM and the GI50 [3] was 1.56 µM. It also gave a GI50 [4] of 6.22 µM, a GI50 [5] of 6.1 µM and a GI50 [6] of 4.12 µM. For the same molecule, the GI50 [7] was 4.32 µM, the GI50 [8] was 1.36 µM and the GI50 [9] was 5.24 µM. For the same molecule, the GI50 [10] was 5.99 µM, the GI50 [11] was 5.68 µM and the GI50 [12] was 0.684 µM. For the same molecule, the GI50 [13] was 4.36 µM, the GI50 [14] was 3.63 µM and the GI50 [15] was 5.06 µM. It also gave a GI50 [16] of 5.89 µM, a GI50 [17] of 5.78 µM and a GI50 [18] of 5.2 µM. It also gave a GI50 [19] of 3.41 µM, a GI50 [20] of 6.36 µM and a GI50 [21] of 4.9 µM. It also gave a GI50 [22] of 4.05 µM, a GI50 [23] of 4.53 µM and a GI50 [24] of 6.45 µM. It also gave a GI50 [25] of 4.35 µM, a GI50 [26] of 5.82 µM and a GI50 [27] of 1.32 µM. The GI50 [28] was 5.58 µM, the GI50 [29] was 5.46 µM and the GI50 [30] was 1.75 µM. It also gave a GI50 [31] of 3.77 µM, a GI50 [32] of 1.63 µM and a GI50 [33] of 4.62 µM. The GI50 [34] was 5.89 µM, the GI50 [35] was 1.55 µM and the GI50 [36] was 5.73 µM. For the same molecule, the GI50 [37] was 6.14 µM, the GI50 [38] was 5.25 µM and the GI50 [39] was 4.14 µM. For the same molecule, the GI50 [40] was 4.88 µM, the GI50 [41] was 5.49 µM and the GI50 [42] was 6.52 µM. It also gave a GI50 [43] of 3.14 µM.
Work on `CN1CCN(Cc2ccc(C(=O)Nc3cccc(Nc4ccc5c(O)cccc5n4)c3)cc2C(F)(F)F)CC1` [Compound 17a, N-(3-((5-hydroxyquinolin-2-yl)amino)phenyl)-4-((4-methylpiperazin-1-yl)methyl)-3-(trifluoromethyl)benzamide] yielded a GI50 [1] of 1.62 µM, a GI50 [2] of 2.53 µM and a GI50 [3] of 1.62 µM. It also gave a GI50 [4] of 4.7 µM, a GI50 [5] of 3.24 µM and a GI50 [6] of 10.7 µM. It also gave a GI50 [7] of 7.39 µM, a GI50 [8] of 1.32 µM and a GI50 [9] of 4.68 µM. For the same molecule, the GI50 [10] was 14.4 µM, the GI50 [11] was 1.99 µM and the GI50 [12] was 1.85 µM. The GI50 [13] was 4.5 µM, the GI50 [14] was 2.21 µM and the GI50 [15] was 2.26 µM. For the same molecule, the GI50 [16] was 2.24 µM, the GI50 [17] was 1.99 µM and the GI50 [18] was 3.81 µM. It also gave a GI50 [19] of 1.65 µM, a GI50 [20] of 3 µM and a GI50 [21] of 2.13 µM. For the same molecule, the GI50 [22] was 2.3 µM, the GI50 [23] was 3.75 µM and the GI50 [24] was 1.73 µM. It also gave a GI50 [25] of 1.92 µM, a GI50 [26] of 3.56 µM and a GI50 [27] of 2.06 µM. It also gave a GI50 [28] of 15.6 µM, a GI50 [29] of 2.47 µM and a GI50 [30] of 1.66 µM. For the same molecule, the GI50 [31] was 2.38 µM, the GI50 [32] was 1.86 µM and the GI50 [33] was 1.67 µM. The GI50 [34] was 3.1 µM, the GI50 [35] was 1.65 µM and the GI50 [36] was 1.78 µM. For the same molecule, the GI50 [37] was 2.39 µM, the GI50 [38] was 1.89 µM and the GI50 [39] was 2.96 µM. It also gave a GI50 [40] of 2.07 µM, a GI50 [41] of 2.34 µM and a GI50 [42] of 3.36 µM. For the same molecule, the GI50 [43] was 2.92 µM.
